Assay results as given in ChEMBL document CHEMBL3885881, “DrugMatrix”.

Organism: Rattus norvegicus
Experiment: DrugMatrix - Regimen: Daily Repeat
Type: toxicity, organism-based, Sprague-Dawley
Set-up: regimen Daily Repeat, gender Male, age 6-8 weeks
Conditions: in vivo, iv, […], vehicle 100 % SALINE; for ALANINE AMINOTRANSFERASE / ALBUMIN / ALKALINE PHOSPHATASE / ASPARTATE AMINOTRANSFERASE / BLOOD UREA NITROGEN / CARBON DIOXIDE / CHLORIDE / CHOLESTEROL / CREATINE PHOSPHOKINASE / CREATININE / GLUCOSE / LACTATE DEHYDROGENASE / LIPASE / PHOSPHORUS / POTASSIUM / SODIUM / TOTAL BILIRUBIN / TOTAL PROTEIN / URIC ACID: tissue Plasma; for ABSOLUTE BASOPHIL / ABSOLUTE EOSINOPHIL / ABSOLUTE LYMPHOCYTE / ABSOLUTE MONOCYTE / ABSOLUTE SEGMENTED NEUTROPHIL / BASOPHIL / EOSINOPHIL / ERYTHROCYTE COUNT / HEMATOCRIT / HEMOGLOBIN / LEUKOCYTE COUNT / LYMPHOCYTE / MEAN CORPUSCULAR HEMOGLOBIN / MEAN CORPUSCULAR HEMOGLOBIN CONCENTRATION / MEAN CORPUSCULAR VOLUME / MONOCYTE / NEUTROPHIL / NUCLEATED RED BLOOD CELLS / PLATELET COUNT: tissue Blood
[1] = 72 h, dose 0.15 mg/Kg, dose level Low, time 3 day
[2] = 72 h, dose 1.5 mg/Kg, dose level High, time 3 day
[3] = 120 h, dose 0.15 mg/Kg, dose level Low, time 5 day
[4] = 120 h, dose 1.5 mg/Kg, dose level High, time 5 day

CCC1=C[C@@H]2CN(C1)Cc1c([nH]c3ccccc13)[C@@](C(=O)OC)(c1cc3c(cc1OC)N(C)[C@H]1[C@@](O)(C(=O)OC)[C@H](OC(C)=O)[C@]4(CC)C=CCN5CC[C@]31[C@@H]54)C2 [VINORELBINE]
ALANINE AMINOTRANSFERASE [1]: 59 u/L
ALBUMIN [1]: 4.53 G/DL
ALKALINE PHOSPHATASE [1]: 404 u/L
ASPARTATE AMINOTRANSFERASE [1]: 88.67 u/L
BLOOD UREA NITROGEN [1]: 17.33 mg/dL
CARBON DIOXIDE [1]: 27.33 mmol/L
CHLORIDE [1]: 101 MEQ/L
CHOLESTEROL [1]: 68.67 mg/dL
CREATINE PHOSPHOKINASE [1]: 237.67 u/L
CREATININE [1]: 0.23 mg/dL
GLUCOSE [1]: 167.33 mg/dL
LACTATE DEHYDROGENASE [1]: 308.67 u/L
LIPASE [1]: 9.67 u/L
PHOSPHORUS [1]: 13.7 mg/dL
POTASSIUM [1]: 6.88 MEQ/L
SODIUM [1]: 145.07 MEQ/L
TOTAL BILIRUBIN [1]: 0.23 mg/dL
TOTAL PROTEIN [1]: 6.33 G/DL
URIC ACID [1]: 2.1 mg/dL
ALANINE AMINOTRANSFERASE [2]: 45.33 u/L
ALBUMIN [2]: 4.47 G/DL
ALKALINE PHOSPHATASE [2]: 359.33 u/L
ASPARTATE AMINOTRANSFERASE [2]: 137.33 u/L
BLOOD UREA NITROGEN [2]: 20.67 mg/dL
CARBON DIOXIDE [2]: 24 mmol/L
CHLORIDE [2]: 103 MEQ/L
CHOLESTEROL [2]: 72.67 mg/dL
CREATINE PHOSPHOKINASE [2]: 671.33 u/L
CREATININE [2]: 0.17 mg/dL
GLUCOSE [2]: 185.67 mg/dL
LACTATE DEHYDROGENASE [2]: 160.33 u/L
LIPASE [2]: 10 u/L
PHOSPHORUS [2]: 13 mg/dL
POTASSIUM [2]: 5.92 MEQ/L
SODIUM [2]: 146 MEQ/L
TOTAL BILIRUBIN [2]: 0.1 mg/dL
TOTAL PROTEIN [2]: 6.2 G/DL
URIC ACID [2]: 2.37 mg/dL
ABSOLUTE BASOPHIL [3]: 0 CELLS/uL
ABSOLUTE EOSINOPHIL [3]: 49 CELLS/uL
ABSOLUTE LYMPHOCYTE [3]: 14282 CELLS/uL
ABSOLUTE MONOCYTE [3]: 49 CELLS/uL
ABSOLUTE SEGMENTED NEUTROPHIL [3]: 2420 CELLS/uL
BASOPHIL [3]: 0%
EOSINOPHIL [3]: 0.33%
ERYTHROCYTE COUNT [3]: 5.78 x10E6/uL
HEMATOCRIT [3]: 36.1%
HEMOGLOBIN [3]: 14.13 G/DL
LEUKOCYTE COUNT [3]: 16.8 x10E3/uL
LYMPHOCYTE [3]: 84.67%
MEAN CORPUSCULAR HEMOGLOBIN [3]: 24.47 pg
MEAN CORPUSCULAR HEMOGLOBIN CONCENTRATION [3]: 39.2 G/DL
MEAN CORPUSCULAR VOLUME [3]: 62.5 fL
MONOCYTE [3]: 0.33%
NEUTROPHIL [3]: 14.67%
NUCLEATED RED BLOOD CELLS [3]: 0 /100WBC
PLATELET COUNT [3]: 1168.33 x10E3/uL
ABSOLUTE BASOPHIL [4]: 0 CELLS/uL
ABSOLUTE EOSINOPHIL [4]: 0 CELLS/uL
ABSOLUTE LYMPHOCYTE [4]: 6817.33 CELLS/uL
ABSOLUTE MONOCYTE [4]: 24.67 CELLS/uL
ABSOLUTE SEGMENTED NEUTROPHIL [4]: 24.67 CELLS/uL
BASOPHIL [4]: 0%
EOSINOPHIL [4]: 0%
ERYTHROCYTE COUNT [4]: 5.47 x10E6/uL
HEMATOCRIT [4]: 31.93%
HEMOGLOBIN [4]: 12.93 G/DL
LEUKOCYTE COUNT [4]: 6.87 x10E3/uL
LYMPHOCYTE [4]: 99.33%
MEAN CORPUSCULAR HEMOGLOBIN [4]: 23.67 pg
MEAN CORPUSCULAR HEMOGLOBIN CONCENTRATION [4]: 40.5 G/DL
MEAN CORPUSCULAR VOLUME [4]: 58.4 fL
MONOCYTE [4]: 0.33%
NEUTROPHIL [4]: 0.33%
NUCLEATED RED BLOOD CELLS [4]: 0 /100WBC
PLATELET COUNT [4]: 359 x10E3/uL
ALANINE AMINOTRANSFERASE [3]: 48.33 u/L
ALBUMIN [3]: 4.33 G/DL
ALKALINE PHOSPHATASE [3]: 436.67 u/L
ASPARTATE AMINOTRANSFERASE [3]: 85 u/L
BLOOD UREA NITROGEN [3]: 16.67 mg/dL
CARBON DIOXIDE [3]: 27 mmol/L
CHLORIDE [3]: 100.67 MEQ/L
CHOLESTEROL [3]: 65.33 mg/dL
CREATINE PHOSPHOKINASE [3]: 245 u/L
CREATININE [3]: 0.2 mg/dL
GLUCOSE [3]: 166.33 mg/dL
LACTATE DEHYDROGENASE [3]: 152 u/L
LIPASE [3]: 9.33 u/L
PHOSPHORUS [3]: 12.43 mg/dL
POTASSIUM [3]: 7.02 MEQ/L
SODIUM [3]: 145.37 MEQ/L
TOTAL BILIRUBIN [3]: 0.2 mg/dL
TOTAL PROTEIN [3]: 6.27 G/DL
URIC ACID [3]: 2.07 mg/dL
ALANINE AMINOTRANSFERASE [4]: 58.67 u/L
ALBUMIN [4]: 4.23 G/DL
ALKALINE PHOSPHATASE [4]: 367.67 u/L
ASPARTATE AMINOTRANSFERASE [4]: 138.67 u/L
BLOOD UREA NITROGEN [4]: 15 mg/dL
CARBON DIOXIDE [4]: 31.33 mmol/L
CHLORIDE [4]: 100 MEQ/L
CHOLESTEROL [4]: 75 mg/dL
CREATINE PHOSPHOKINASE [4]: 193 u/L
CREATININE [4]: 0.19 mg/dL
GLUCOSE [4]: 143.67 mg/dL
LACTATE DEHYDROGENASE [4]: 98 u/L
LIPASE [4]: 9 u/L
PHOSPHORUS [4]: 10.6 mg/dL
POTASSIUM [4]: 6.34 MEQ/L
SODIUM [4]: 146.4 MEQ/L
TOTAL BILIRUBIN [4]: 0.2 mg/dL
TOTAL PROTEIN [4]: 6.13 G/DL
URIC ACID [4]: 0.9 mg/dL
